According to publication PMC8537445, “D-Peptide-Based Probe for CXCR4-Targeted Molecular Imaging and Radionuclide Therapy” (Pharmaceutics, 2021):
Like-named read-outs stand apart in the source and are kept apart here. Positions of bridges follow the written chain, without caps; N, C: chain ends. Non-standard residues stand in square brackets, D forms with d. Residues, ends and D or L forms follow the SMILES beside them. Chains are numbered I, II in the order given. *: point of attachment. NOTA = O=C(O)CN1CCN(CC(=O)O)CCN(CC(=O)*)CC1

Key:
[1] = Ex vivo biodistribution in U87.hCXCR4 tumor-bearing mice; design: species or system mouse; conditions: female, SCID (CB17.Cg-Prkdc<scid>Lyst<bg-J>/Crl), mouse, iv, total radioactivity, 75 min p.i., mean ± SD; for tissue to tissue ratio at 1.25 h: SUV ratio
[2] = system: U87.hCXCR4 tumor-bearing mice; experiment: as above; design: species or system mouse; conditions: 75 min p.i., mean ± SD
[3] = PET/CT imaging in wild-type mice; assay type: in vivo, mouse; conditions: dynamic PET 0–60 min p.i., AMD3100 5 mg/kg
Procedure: Dynamic PET images were acquired for 60 min immediately after intravenous injection using a beta-cube PET scanner (Molecubes, Gent, Belgium). The mice were kept under gas anesthesia during the entire procedure (2.5% isoflurane in O2 at 1 L/min flow rate), with temperature and respiration monitored throughout. After PET scanning, a CT image was acquired for anatomic coregistration with an X-cube CT scanner (Molecubes, Gent, Belgium), using the ‘general’ protocol with the following parameters: 50 kVp, 480 exposures, 85 ms/projection, 100 μA tube current, rotation time 60 s. After scanning, mice were sacrificed 75 min p.i. and a whole-body biodistribution study was performed.
PET data were histogrammed into 14 frames (4 × 15 s, 4 × 1 min, 1 × 5 min, 5 × 10 min) and reconstructed into a 192 × 192 image matrix with 0.4 mm voxels using 30 iterations the native MLEM algorithm with corrections for randoms, scatter, attenuation and decay. CT Data were reconstructed using a regularized statistical (iterative) image reconstruction algorithm using non-negative least squares, using an isotropic 200 μm voxel size and scaled to Hounsfield Units (HUs) after calibration against a standard air/water phantom. […] Radiotracer uptake at 60 min, expressed as SUVmean, was the outcome measure.

[4] = co-injected AMD3100 5 mg/kg (157 nmol), n = 4
[5] = co-injected DV1-k-(DV3) 7 nmol, n = 3
[6] = co-injected DV1-k-(DV3) 14 nmol, n = 4
[7] = co-injected DV1-k-(DV3) 24 nmol, n = 4
[8] = SUV ratio, co-injected AMD3100 5 mg/kg (157 nmol), n = 4
[9] = SUV ratio, co-injected DV1-k-(DV3) 7 nmol, n = 3
[10] = SUV ratio, co-injected DV1-k-(DV3) 24 nmol, n = 4

Compound: CC(C)C[C@@H](N)C(=O)NCC(=O)N[C@H](C)C(=O)N[C@H](CO)C(=O)N[C@H](Cc1c[nH]c2ccccc12)C(=O)N[C@H](Cc1c[nH]cn1)C(=O)N[C@H](CCCNC(=N)N)C(=O)N1CCC[C@@H]1C(=O)N[C@H](CC(=O)O)C(=O)N[C@H](CCCCNC(=O)CN1CCN(CC(=O)O)CCN(CC(=O)O)CC1)C(=O)NCCCC[C@@H](NC(=O)[C@H]1CCCN1C(=O)[C@@H](CC(C)C)NC(=O)[C@H]1CCCN1C(=O)[C@@H](CCCNC(=N)N)NC(=O)[C@@H](CCCCN)NC(=O)[C@@H](CCC(N)=O)NC(=O)[C@@H](Cc1ccc(O)cc1)NC(=O)CNC(=O)[C@@H](CC(C)C)NC(=O)[C@@H](CS)NC(=O)[C@@H](CS)NC(=O)[C@@H](CCCCN)NC(=O)[C@@H](CC(=O)O)NC(=O)[C@H]1CCCN1C(=O)[C@@H](CCCNC(=N)N)NC(=O)[C@@H](Cc1c[nH]cn1)NC(=O)[C@@H](Cc1c[nH]c2ccccc12)NC(=O)[C@@H](CO)NC(=O)[C@@H](C)NC(=O)CNC(=O)[C@H](N)CC(C)C)C(=O)O [[^18F]AlF-NOTA-DV1-k-(DV3)] (I: H-[dL]G[dA][dS][dW][dH][dR][dP][dD][dK][dC][dC][dL]G[dY][dQ][dK][dR][dP][dL][dP][dK]-OH / II: H-[dL]G[dA][dS][dW][dH][dR][dP][dD][dK](NOTA); amide I:22-II:C)
- SUV at 1.25 h ([1]; muscle, tracer alone (0 nmol), n = 4, read-out: muscle uptake): 0.05 ± 0.02 SUV
- SUV at 1.25 h ([1]; muscle, with AMD3100 5 mg/kg (157 nmol), co-injected, co-injected AMD3100 5 mg/kg (157 nmol), n = 4, read-out: muscle uptake): 0.1 ± 0.1 SUV
- SUV at 1.25 h ([1]; pancreas, co-injected AMD3100 5 mg/kg (157 nmol), n = 4, read-out: pancreas uptake): 0.1 ± 0.1 SUV
- SUV at 1.25 h ([1]; pancreas, co-injected DV1-k-(DV3) 7 nmol, n = 3, read-out: pancreas uptake): 0.1 ± 0.04 SUV
- SUV at 1.25 h ([1]; pancreas, co-injected DV1-k-(DV3) 14 nmol, n = 4, read-out: pancreas uptake): 0.2 ± 0.1 SUV
- SUV at 1.25 h ([1]; pancreas, co-injected DV1-k-(DV3) 24 nmol, n = 4, read-out: pancreas uptake): 0.1 ± 0.03 SUV
- SUV at 1.25 h ([1]; pancreas, tracer alone (0 nmol), n = 4, read-out: pancreas uptake): 0.06 ± 0.02 SUV
- SUV at 1.25 h ([1]; spleen, co-injected AMD3100 5 mg/kg (157 nmol), n = 4, read-out: spleen uptake): 0.5 ± 0.1 SUV
- SUV at 1.25 h ([1]; spleen, co-injected DV1-k-(DV3) 7 nmol, n = 3, read-out: spleen uptake): 0.5 ± 0.1 SUV
- SUV at 1.25 h ([1]; spleen, co-injected DV1-k-(DV3) 14 nmol, n = 4, read-out: spleen uptake): 0.6 ± 0.2 SUV
- SUV at 1.25 h ([1]; spleen, co-injected DV1-k-(DV3) 24 nmol, n = 4, read-out: spleen uptake): 0.4 ± 0.1 SUV
- SUV at 1.25 h ([1]; spleen, tracer alone (0 nmol), n = 4, read-out: spleen uptake): 2.5 ± 1 SUV
- tissue to tissue ratio at 1.25 h ([1]; tumor / blood, tracer alone (0 nmol), n = 4, read-out: tumor-to-blood ratio (t/blood)): 4.6 ± 0.9
- tissue to tissue ratio at 1.25 h ([1]; tumor / liver, tracer alone (0 nmol), n = 4, read-out: tumor-to-liver ratio (t/liver)): 0.1 ± 0.02
- tissue to tissue ratio at 1.25 h ([1]; tumor / liver, with unlabelled DV1-k-(DV3) 24 nmol, co-injected, co-injected DV1-k-(DV3) 24 nmol, n = 4, read-out: tumor-to-liver ratio (t/liver)): 0.9 ± 0.2
- tissue to tissue ratio at 1.25 h ([1]; tumor / muscle, tracer alone (0 nmol), n = 4, read-out: tumor-to-muscle ratio (t/muscle)): 12.4 ± 2.9
- tissue to tissue ratio at 1.25 h ([1]; tumor / muscle, with AMD3100 5 mg/kg (157 nmol), co-injected, co-injected AMD3100 5 mg/kg (157 nmol), n = 4, read-out: tumor-to-muscle ratio (t/muscle)): 4.2 ± 1.1
- tissue to tissue ratio at 1.25 h ([1]; tumor / muscle, with unlabelled DV1-k-(DV3) 7 nmol, co-injected, co-injected DV1-k-(DV3) 7 nmol, n = 3, read-out: tumor-to-muscle ratio (t/muscle)): 5.4 ± 2.2
- tissue to tissue ratio at 1.25 h ([1]; tumor / muscle, with unlabelled DV1-k-(DV3) 14 nmol, co-injected, co-injected DV1-k-(DV3) 14 nmol, n = 4, read-out: tumor-to-muscle ratio (t/muscle)): 4.8 ± 2.1
- tissue to tissue ratio at 1.25 h ([1]; tumor / muscle, with unlabelled DV1-k-(DV3) 24 nmol, co-injected, co-injected DV1-k-(DV3) 24 nmol, n = 4, read-out: tumor-to-muscle ratio (t/muscle)): 3 ± 0.4
- SUV at 1.25 h ([1]; tumor, tracer alone (0 nmol), n = 4, read-out: tumor uptake): 0.6 ± 0.2 SUV
- SUV at 1.25 h ([1]; tumor, with AMD3100 5 mg/kg (157 nmol), co-injected, co-injected AMD3100 5 mg/kg (157 nmol), n = 4, read-out: tumor uptake): 0.4 ± 0.2 SUV
- SUV at 1.25 h ([1]; tumor, with unlabelled DV1-k-(DV3) 7 nmol, co-injected, co-injected DV1-k-(DV3) 7 nmol, n = 3, read-out: tumor uptake): 0.7 ± 0.1 SUV
- SUV at 1.25 h ([1]; tumor, with unlabelled DV1-k-(DV3) 14 nmol, co-injected, co-injected DV1-k-(DV3) 14 nmol, n = 4, read-out: tumor uptake): 0.9 ± 0.3 SUV
- SUV at 1.25 h ([1]; tumor, with unlabelled DV1-k-(DV3) 24 nmol, co-injected, co-injected DV1-k-(DV3) 24 nmol, n = 4, read-out: tumor uptake): 0.6 ± 0.2 SUV
- tissue to tissue ratio at 1.25 h ([1]; tumor/blood, co-injected DV1-k-(DV3) 7 nmol, n = 3, read-out: tumor-to-blood ratio (t/blood)): 2.2 ± 0.9
- tissue to tissue ratio at 1.25 h ([1]; tumor/blood, co-injected DV1-k-(DV3) 14 nmol, n = 4, read-out: tumor-to-blood ratio (t/blood)): 2 ± 0.9
- tissue to tissue ratio at 1.25 h ([1]; tumor/blood, co-injected DV1-k-(DV3) 24 nmol, n = 4, read-out: tumor-to-blood ratio (t/blood)): 1.8 ± 0.3
- tissue to tissue ratio at 1.25 h ([1]; tumor/bone, co-injected AMD3100 5 mg/kg (157 nmol), n = 4, read-out: tumor-to-bone ratio (t/bone)): 2.6 ± 0.7
- tissue to tissue ratio at 1.25 h ([1]; tumor/bone, co-injected DV1-k-(DV3) 7 nmol, n = 3, read-out: tumor-to-bone ratio (t/bone)): 2.9 ± 0.3
- tissue to tissue ratio at 1.25 h ([1]; tumor/bone, co-injected DV1-k-(DV3) 14 nmol, n = 4, read-out: tumor-to-bone ratio (t/bone)): 3.2 ± 0.4
- tissue to tissue ratio at 1.25 h ([1]; tumor/bone, co-injected DV1-k-(DV3) 24 nmol, n = 4, read-out: tumor-to-bone ratio (t/bone)): 3.3 ± 0.5
- tissue to tissue ratio at 1.25 h ([1]; tumor/bone, tracer alone (0 nmol), n = 4, read-out: tumor-to-bone ratio (t/bone)): 1.4 ± 0.5
- tissue to tissue ratio at 1.25 h ([1]; tumor/liver, co-injected AMD3100 5 mg/kg (157 nmol), n = 4, read-out: tumor-to-liver ratio (t/liver)): 0.5 ± 0.2
- tissue to tissue ratio at 1.25 h ([1]; tumor/liver, co-injected DV1-k-(DV3) 7 nmol, n = 3, read-out: tumor-to-liver ratio (t/liver)): 0.6 ± 0.1
- tissue to tissue ratio at 1.25 h ([1]; tumor/liver, co-injected DV1-k-(DV3) 14 nmol, n = 4, read-out: tumor-to-liver ratio (t/liver)): 0.8 ± 0.2
- tissue to tissue ratio at 1.25 h ([1]; tumor/spleen, co-injected AMD3100 5 mg/kg (157 nmol), n = 4, read-out: tumor-to-spleen ratio (t/spleen)): 0.7 ± 0.2
- tissue to tissue ratio at 1.25 h ([1]; tumor/spleen, co-injected DV1-k-(DV3) 7 nmol, n = 3, read-out: tumor-to-spleen ratio (t/spleen)): 1.4 ± 0.1
- tissue to tissue ratio at 1.25 h ([1]; tumor/spleen, co-injected DV1-k-(DV3) 14 nmol, n = 4, read-out: tumor-to-spleen ratio (t/spleen)): 1.4 ± 0.1
- tissue to tissue ratio at 1.25 h ([1]; tumor/spleen, co-injected DV1-k-(DV3) 24 nmol, n = 4, read-out: tumor-to-spleen ratio (t/spleen)): 1.6 ± 0.3
- tissue to tissue ratio at 1.25 h ([1]; tumor/spleen, tracer alone (0 nmol), n = 4, read-out: tumor-to-spleen ratio (t/spleen)): 0.3 ± 0.1
- bone uptake [2, 4]: 0.1 ± 0.04 SUV
- spleen uptake [2, 4]: 0.5 ± 0.1 SUV
- bone uptake ([2]; co-injected AMD3100 5 mg/kg (157 nmol), n = 4, listed as [18F]AlF-NOTA-DV1-k-(DV3)): 0.1 ± 0.04 SUV
- bone uptake [2, 5]: 0.2 ± 0.04 SUV
- liver uptake [2, 5]: 1.2 ± 0.1 SUV
- bone uptake [2, 6]: 0.3 ± 0.1 SUV
- liver uptake [2, 6]: 1.2 ± 0.4 SUV
- bone uptake [2, 7]: 0.2 ± 0.04 SUV
- liver uptake [2, 7]: 0.7 ± 0.1 SUV
- tumor-to-blood ratio (t/blood) [2, 8]: 1.7 ± 0.5
- tumor-to-liver ratio (t/liver) [2, 8]: 0.5 ± 0.2
- tumor-to-liver ratio (t/liver) [2, 9]: 0.6 ± 0.1
- tumor-to-muscle ratio (t/muscle) [2, 9]: 5.4 ± 2.2
- tumor-to-muscle ratio (t/muscle) ([2]; SUV ratio, co-injected DV1-k-(DV3) 14 nmol, n = 4): 4.8 ± 2.1
- tumor-to-liver ratio (t/liver) [2, 10]: 0.9 ± 0.2
- tumor-to-muscle ratio (t/muscle) [2, 10]: 3.0 ± 0.4
- kidney uptake on co-injection of AMD3100 [3]: increased with a factor of two
- liver retention on co-injection of AMD3100 [3]: completely blocked
